Source: US12162934B2, “Gremlin-1 antagonist for the prevention and treatment of cancer” (UCB BIOPHARMA SRL, priority 2018, dated 2024)

System: 5TGM1.Bmx1 MM PCs
Experiment: 5TGM1/KaLwRij mouse model of multiple myeloma, antibody prior to tumour cell inoculation
Assay type: in vivo
Protocol: Targeting Grem1 prior to tumour cell inoculation in an immunocompetent murine model of systemic MM: C57BL/KaLwRij mice (6-8-week-old) were administered two doses of 30 mg/kg Grem1-neutralising antibody Ab7326 or IgG control Ab101.4 (UCB-Pharma, UK) by subcutaneous (s.c.) injection three days and one day prior to tumour inoculation. At Day 0, mice were inoculated with 5×10^5 5TGM1.Bmx1 cells via tail vein injection. Mice continued to receive either 30 mg/kg Grem1-neutralising antibody Ab7326 or IgG control Ab101.4 (UCB-Pharma, UK) by s.c. injection every 3 days for the duration of the 4-week model. Tumour burden was monitored weekly by BLI as previously described. At the end of the experiment, blood was collected by tail bleed, centrifuged at 2100 g for 10 min and serum collected. Serum paraprotein levels were analysed using the Hydragel 30 β1β2 kit (Sebia Electrophoresis, Georgia, USA) according to the manufacturer's instructions. The band corresponding to paraprotein was quantitated relative to serum albumin levels. (SAHMRI Animal Ethics SAM165)

How did the “Reduction in tumour burden (BLI)” value (30 mg/kg s.c. from three days prior to inoculation, 4-weeks post-tumour cell inoculation, vs IgG control) turn out when “Ab7326: allosteric inhibitory anti-Gremlin-1 antibody from a naïve human library; CDRs SEQ ID NOS 4 to 9; mouse IgG1 in mouse experiments” was run?
The value was “approximately 75%”.

What about the “Tumour burden in the hindlimb bones (BLI)” value (antibody prior to tumour cell inoculation, vs IgG control) of the same substance?
Its value is “significant reduction”.

What about the “Additional reduction in overall tumour burden compared with treatment following tumour cell inoculation” value (end of the study) of the same substance?
The value was 25%.

And the Splenic tumour burden (pre-tumour cell inoculation group)?
The Splenic tumour burden was “downwards trend”.

What about the “M-spike intensity relative to serum albumin (SPEP)” value (week 4, vs IgG control) of the same substance?
Its value is “significantly lower”.
